Measured values published in ChEMBL document CHEMBL6177993, “De Novo 3-(Phenylcarbamoyl) Benzoate Analogues: Efficacy against Multidrug-Resistant S. aureus and Elucidation of the Biodistribution Profile” (J Med Chem, 2025).
Values after ≈ are worked out from the molar mass of the structure shown. Active and inactive are the calls of the source. No cut-off for these calls is given here.

What was measured:
Enterococcus faecalis = experiment: Antibacterial activity against Enterococcus faecalis ATCC 35550 assessed as reduction in bacterial growth measured after 18 to 24 hrs by broth microdilution method; type: functional; settings: time 18-24 hrs
Bacillus subtilis = experiment: Antibacterial activity against Bacillus subtilis IITKSM1 assessed as reduction in bacterial growth measured after 18 to 24 hrs by broth microdilution method; type: functional; settings: time 18-24 hrs
Staphylococcus aureus [1] = experiment: Antibacterial activity against Staphylococcus aureus ATCC 29213 assessed as reduction in bacterial growth measured after 18 to 24 hrs by broth microdilution method; type: functional; settings: time 18-24 hrs
Klebsiella pneumoniae = experiment: Antibacterial activity against Klebsiella pneumoniae BAA 1705 assessed as reduction in bacterial growth measured after 18 to 24 hrs by broth microdilution method; type: functional; settings: time 18-24 hrs
Acinetobacter baumannii = experiment: Antibacterial activity against Acinetobacter baumannii BAA 1605 assessed as reduction in bacterial growth measured after 18 to 24 hrs by broth microdilution method; type: functional; settings: time 18-24 hrs
Pseudomonas aeruginosa = experiment: Antibacterial activity against Pseudomonas aeruginosa ATCC 27853 assessed as reduction in bacterial growth measured after 18 to 24 hrs by broth microdilution method; type: functional; settings: time 18-24 hrs
Escherichia coli = experiment: Antibacterial activity against Escherichia coli ATCC 25922 assessed as reduction in bacterial growth measured after 18 to 24 hrs by broth microdilution method; type: functional; settings: time 18-24 hrs
Staphylococcus aureus [2] = experiment: Antibacterial activity against methicillin-sensitive Staphylococcus aureus ATCC 29213 assessed as reduction in bacterial growth measured after 18 to 24 hrs by broth microdilution method; type: functional; settings: time 18-24 hrs
Staphylococcus aureus [3] = experiment: Antibacterial activity against methicillin-resistant Staphylococcus aureus NRS 100 assessed as reduction in bacterial growth measured after 18 to 24 hrs by broth microdilution method; type: functional; settings: time 18-24 hrs
Staphylococcus aureus [4] = experiment: Antibacterial activity against methicillin-resistant Staphylococcus aureus NRS 119 assessed as reduction in bacterial growth measured after 18 to 24 hrs by broth microdilution method; type: functional; settings: time 18-24 hrs
Staphylococcus aureus [5] = experiment: Antibacterial activity against methicillin-resistant Staphylococcus aureus NRS 129 assessed as reduction in bacterial growth measured after 18 to 24 hrs by broth microdilution method; type: functional; settings: time 18-24 hrs
Staphylococcus aureus [6] = experiment: Antibacterial activity against methicillin-resistant Staphylococcus aureus NRS 186 assessed as reduction in bacterial growth measured after 18 to 24 hrs by broth microdilution method; type: functional; settings: time 18-24 hrs
Staphylococcus aureus [7] = experiment: Antibacterial activity against methicillin-resistant Staphylococcus aureus NRS 191 assessed as reduction in bacterial growth measured after 18 to 24 hrs by broth microdilution method; type: functional; settings: time 18-24 hrs
Staphylococcus aureus [8] = experiment: Antibacterial activity against methicillin-resistant Staphylococcus aureus NRS 192 assessed as reduction in bacterial growth measured after 18 to 24 hrs by broth microdilution method; type: functional; settings: time 18-24 hrs
Staphylococcus aureus [9] = experiment: Antibacterial activity against methicillin-resistant Staphylococcus aureus NRS 193 assessed as reduction in bacterial growth measured after 18 to 24 hrs by broth microdilution method; type: functional; settings: time 18-24 hrs
Staphylococcus aureus [10] = experiment: Antibacterial activity against methicillin-resistant Staphylococcus aureus NRS 194 assessed as reduction in bacterial growth measured after 18 to 24 hrs by broth microdilution method; type: functional; settings: time 18-24 hrs
Staphylococcus aureus [11] = experiment: Antibacterial activity against methicillin-resistant Staphylococcus aureus NRS 198 assessed as reduction in bacterial growth measured after 18 to 24 hrs by broth microdilution method; type: functional; settings: time 18-24 hrs
Staphylococcus aureus [12] = experiment: Antibacterial activity against vacomycin-resistant Staphylococcus aureus VRS 1 assessed as reduction in bacterial growth measured after 18 to 24 hrs by broth microdilution method; type: functional; settings: time 18-24 hrs
Staphylococcus aureus [13] = experiment: Antibacterial activity against vacomycin-resistant Staphylococcus aureus VRS 4 assessed as reduction in bacterial growth measured after 18 to 24 hrs by broth microdilution method; type: functional; settings: time 18-24 hrs
Staphylococcus aureus [14] = experiment: Antibacterial activity against vacomycin-resistant Staphylococcus aureus VRS 12 assessed as reduction in bacterial growth measured after 18 to 24 hrs by broth microdilution method; type: functional; settings: time 18-24 hrs
Staphylococcus aureus [15] = experiment: Inhibition of biofilm in Staphylococcus aureus ATCC 29213 at 1 times MIC measured after 12 hrs by crystal violet staining based analysis relative to control; type: functional
Staphylococcus aureus [16] = experiment: Inhibition of biofilm in Staphylococcus aureus ATCC 29213 at 0.5 times MIC measured after 12 hrs by crystal violet staining based analysis relative to control; type: functional
Staphylococcus aureus [17] = experiment: Inhibition of biofilm in Staphylococcus aureus ATCC 29213 at 2 times MIC measured after 12 hrs by crystal violet staining based analysis relative to control; type: functional
Staphylococcus aureus [18] = experiment: Inhibition of biofilm in Staphylococcus aureus ATCC 29213 at 2 ug/ml measured after 12 hrs by crystal violet staining based analysis; type: functional, organism-based; settings: dose 2.0 µg/ml
Staphylococcus aureus [19] = experiment: Antibacterial activity against Staphylococcus aureus assessed as reduction in bacterial growth; type: functional
Staphylococcus aureus [20] = experiment: Bactericidal activity against Staphylococcus aureus ATCC 29213 at 4 to 8 time MIC measured after 8 hrs by time-kill assay; type: functional, organism-based

SMILES | MIC (Enterococcus faecalis) [mg/L] | MIC (Bacillus subtilis) [mg/L] | MIC (Staphylococcus aureus [1]) [mg/L] | MIC (Klebsiella pneumoniae) [mg/L] | MIC (Acinetobacter baumannii) [mg/L] | MIC (Pseudomonas aeruginosa) [mg/L] | MIC (Escherichia coli) [mg/L] | other results
CC(C)(C)c1cc(C(c2ccc(F)cc2)c2ccc(F)cc2)c(NC(=O)c2cccc(C(=O)O)c2)c(C(c2ccc(F)cc2)c2ccc(F)cc2)c1 | 1 (≈ 1.42 µM) | 1 (≈ 1.42 µM) | 2 (≈ 2.85 µM) | > 64 | > 64 | > 64 | > 64 | MIC (Staphylococcus aureus [2]): 2 mg/L (≈ 2.85 µM); MIC (Staphylococcus aureus [3]): 2 mg/L (≈ 2.85 µM); MIC (Staphylococcus aureus [4]): 2 mg/L (≈ 2.85 µM); MIC (Staphylococcus aureus [5]): 2 mg/L (≈ 2.85 µM); MIC (Staphylococcus aureus [6]): 2 mg/L (≈ 2.85 µM); MIC (Staphylococcus aureus [7]): 2 mg/L (≈ 2.85 µM); MIC (Staphylococcus aureus [8]): 2 mg/L (≈ 2.85 µM); MIC (Staphylococcus aureus [9]): 2 mg/L (≈ 2.85 µM); MIC (Staphylococcus aureus [10]): 2 mg/L (≈ 2.85 µM); MIC (Staphylococcus aureus [11]): 2 mg/L (≈ 2.85 µM); MIC (Staphylococcus aureus [12]): 2 mg/L (≈ 2.85 µM); MIC (Staphylococcus aureus [13]): 2 mg/L (≈ 2.85 µM); MIC (Staphylococcus aureus [14]): 2 mg/L (≈ 2.85 µM); inhibition (INH) (Staphylococcus aureus [15]): 95%; inhibition (INH) (Staphylococcus aureus [16]): >50%; inhibition (INH) (Staphylococcus aureus [17]): 95%; inhibition (Staphylococcus aureus [18]): Active
O=C(O)c1cccc(C(=O)Nc2c(C(c3ccccc3)c3ccccc3)cc(OC(F)F)cc2C(c2ccccc2)c2ccccc2)c1 | 2 (≈ 3.13 µM) | 1 (≈ 1.56 µM) | 4 (≈ 6.25 µM) | > 64 | > 64 | > 64 | > 64 | 
COc1cc(C(c2ccccc2)c2ccccc2)c(NC(=O)c2cccc(C(=O)O)c2)c(C(c2ccccc2)c2ccccc2)c1 | 64 (≈ 106 µM) | 32 (≈ 53 µM) | 8 (≈ 13.3 µM) | > 64 | > 64 | > 64 | > 64 | 
C#CCOc1ccccc1-c1ccc(-c2ccc(-c3ccccc3OCc3cn(CC(=O)N[C@@H](CCCNC(=N)N)C(=O)N[C@@H](CCCNC(=N)N)C(=O)N[C@@H](CCCNC(=N)N)C(N)=O)nn3)cc2)cc1 |  |  |  |  |  |  |  | MIC (Staphylococcus aureus [19]): 3.83 mg/L (≈ 3.9 µM)
O=C(O)c1cccc(C(=O)Nc2c(C(c3ccccc3)c3ccccc3)cc(Br)cc2C(c2ccccc2)c2ccccc2)c1 | 2 (≈ 3.06 µM) | 2 (≈ 3.06 µM) | 4 (≈ 6.13 µM) | > 64 | > 64 | > 64 | > 64 | 
CC(c1ccccc1)c1cc(C(C)(C)C)cc(C(C)c2ccccc2)c1NC(=O)c1cccc(C(=O)O)c1 (stereo not drawn) | > 64 | > 64 | > 64 | > 64 | > 64 | > 64 | > 64 | 
C[C@H]1COc2c(N3CCN(C)CC3)c(F)cc3c(=O)c(C(=O)O)cn1c23 [LEVOFLOXACIN ANHYDROUS] |  |  |  |  |  |  |  | MIC (Staphylococcus aureus [2]): 0.25 mg/L (≈ 0.692 µM); MIC (Staphylococcus aureus [3]): 0.25 mg/L (≈ 0.692 µM); MIC (Staphylococcus aureus [4]): 16 mg/L (≈ 44.3 µM); MIC (Staphylococcus aureus [5]): 0.25 mg/L (≈ 0.692 µM); MIC (Staphylococcus aureus [6]): 4 mg/L (≈ 11.1 µM); MIC (Staphylococcus aureus [7]): 16 mg/L (≈ 44.3 µM); MIC (Staphylococcus aureus [8]): 8 mg/L (≈ 22.1 µM); MIC (Staphylococcus aureus [9]): 32 mg/L (≈ 88.6 µM); MIC (Staphylococcus aureus [10]): 0.125 mg/L (≈ 0.346 µM); MIC (Staphylococcus aureus [11]): 32 mg/L (≈ 88.6 µM); MIC (Staphylococcus aureus [12]): 32 mg/L (≈ 88.6 µM); MIC (Staphylococcus aureus [13]): > 64 mg/L; MIC (Staphylococcus aureus [14]): 32 mg/L (≈ 88.6 µM)
CCOc1cc(C(c2ccccc2)c2ccccc2)c(NC(=O)c2cccc(C(=O)O)c2)c(C(c2ccccc2)c2ccccc2)c1 | 64 (≈ 104 µM) | 1 (≈ 1.62 µM) | 64 (≈ 104 µM) | > 64 | > 64 | > 64 | > 64 | 
CN[C@H](CC(C)C)C(=O)N[C@H]1C(=O)N[C@@H](CC(N)=O)C(=O)N[C@H]2C(=O)N[C@H]3C(=O)N[C@H](C(=O)N[C@H](C(=O)O)c4cc(O)cc(O)c4-c4cc3ccc4O)[C@H](O)c3ccc(c(Cl)c3)Oc3cc2cc(c3O[C@@H]2O[C@H](CO)[C@@H](O)[C@H](O)[C@H]2O[C@H]2C[C@](C)(N)[C@H](O)[C@H](C)O2)Oc2ccc(cc2Cl)[C@H]1O [VANCOMYCIN] |  |  |  |  |  |  |  | MIC (Staphylococcus aureus [12]): > 64 mg/L; MIC (Staphylococcus aureus [13]): > 64 mg/L; MIC (Staphylococcus aureus [14]): > 64 mg/L; Activity (Staphylococcus aureus [20]): Active
CC(c1ccccc1)c1cc(Cl)cc(C(C)c2ccccc2)c1NC(=O)c1cccc(C(=O)O)c1 (stereo not drawn) | > 64 | > 64 | > 64 | > 64 | > 64 | > 64 | > 64 | 
O=C(O)c1cccc(C(=O)Nc2c(C(c3ccccc3)c3ccccc3)cc(C(c3ccccc3)c3ccccc3)cc2C(c2ccccc2)c2ccccc2)c1 | 8 (≈ 10.8 µM) | 64 (≈ 86.5 µM) | > 64 | > 64 | > 64 | > 64 | > 64 | 
O=C(O)c1cccc(C(=O)Nc2c(C(c3ccccc3)c3ccccc3)cc(F)cc2C(c2ccccc2)c2ccccc2)c1 | 2 (≈ 3.38 µM) | 1 (≈ 1.69 µM) | 4 (≈ 6.76 µM) | > 64 | > 64 | > 64 | > 64 | 
